{"source": "paper PMC3955222", "about": "(Chembiochem : a European journal of chemical biology, 2013)", "molecular_target": "T1, CODH ICh (Carboxydothermus hydrogenoformans, UniProt P59934)", "T1 sequence (P59934 2-636)": "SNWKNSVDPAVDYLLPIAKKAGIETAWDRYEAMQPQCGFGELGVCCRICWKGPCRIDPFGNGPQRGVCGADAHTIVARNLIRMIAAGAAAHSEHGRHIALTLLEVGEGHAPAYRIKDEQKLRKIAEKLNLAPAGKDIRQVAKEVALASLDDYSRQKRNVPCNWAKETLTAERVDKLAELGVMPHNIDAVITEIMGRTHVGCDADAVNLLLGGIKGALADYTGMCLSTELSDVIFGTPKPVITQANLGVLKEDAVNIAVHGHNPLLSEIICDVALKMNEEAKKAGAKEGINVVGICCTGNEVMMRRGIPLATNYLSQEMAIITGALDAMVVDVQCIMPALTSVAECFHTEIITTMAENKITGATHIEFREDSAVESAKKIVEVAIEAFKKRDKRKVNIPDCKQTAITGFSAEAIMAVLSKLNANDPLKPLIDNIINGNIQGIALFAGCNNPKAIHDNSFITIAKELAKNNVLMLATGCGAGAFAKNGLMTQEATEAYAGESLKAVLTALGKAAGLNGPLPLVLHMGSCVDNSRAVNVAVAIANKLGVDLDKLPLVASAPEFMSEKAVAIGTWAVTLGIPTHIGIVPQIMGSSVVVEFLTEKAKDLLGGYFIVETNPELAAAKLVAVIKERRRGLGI", "assay_type": "biochemical", "data": [{"smiles": "N#CO", "note": "[cyanate]", "values": [{"measurement": "chronoamperometry, inactivation half-time at 6.7 mM cyanate", "value": "~ 90 seconds"}]}]}
